50 compounds from ChEMBL document CHEMBL5724796, “Tm Shift (DSF) assay results for EUbOPEN Chemogenomics Library” (2024) can be followed below.

Test [1] addresses T1, Peregrin (Homo sapiens) (UniProt P55201).
T1 sequence (whole entry): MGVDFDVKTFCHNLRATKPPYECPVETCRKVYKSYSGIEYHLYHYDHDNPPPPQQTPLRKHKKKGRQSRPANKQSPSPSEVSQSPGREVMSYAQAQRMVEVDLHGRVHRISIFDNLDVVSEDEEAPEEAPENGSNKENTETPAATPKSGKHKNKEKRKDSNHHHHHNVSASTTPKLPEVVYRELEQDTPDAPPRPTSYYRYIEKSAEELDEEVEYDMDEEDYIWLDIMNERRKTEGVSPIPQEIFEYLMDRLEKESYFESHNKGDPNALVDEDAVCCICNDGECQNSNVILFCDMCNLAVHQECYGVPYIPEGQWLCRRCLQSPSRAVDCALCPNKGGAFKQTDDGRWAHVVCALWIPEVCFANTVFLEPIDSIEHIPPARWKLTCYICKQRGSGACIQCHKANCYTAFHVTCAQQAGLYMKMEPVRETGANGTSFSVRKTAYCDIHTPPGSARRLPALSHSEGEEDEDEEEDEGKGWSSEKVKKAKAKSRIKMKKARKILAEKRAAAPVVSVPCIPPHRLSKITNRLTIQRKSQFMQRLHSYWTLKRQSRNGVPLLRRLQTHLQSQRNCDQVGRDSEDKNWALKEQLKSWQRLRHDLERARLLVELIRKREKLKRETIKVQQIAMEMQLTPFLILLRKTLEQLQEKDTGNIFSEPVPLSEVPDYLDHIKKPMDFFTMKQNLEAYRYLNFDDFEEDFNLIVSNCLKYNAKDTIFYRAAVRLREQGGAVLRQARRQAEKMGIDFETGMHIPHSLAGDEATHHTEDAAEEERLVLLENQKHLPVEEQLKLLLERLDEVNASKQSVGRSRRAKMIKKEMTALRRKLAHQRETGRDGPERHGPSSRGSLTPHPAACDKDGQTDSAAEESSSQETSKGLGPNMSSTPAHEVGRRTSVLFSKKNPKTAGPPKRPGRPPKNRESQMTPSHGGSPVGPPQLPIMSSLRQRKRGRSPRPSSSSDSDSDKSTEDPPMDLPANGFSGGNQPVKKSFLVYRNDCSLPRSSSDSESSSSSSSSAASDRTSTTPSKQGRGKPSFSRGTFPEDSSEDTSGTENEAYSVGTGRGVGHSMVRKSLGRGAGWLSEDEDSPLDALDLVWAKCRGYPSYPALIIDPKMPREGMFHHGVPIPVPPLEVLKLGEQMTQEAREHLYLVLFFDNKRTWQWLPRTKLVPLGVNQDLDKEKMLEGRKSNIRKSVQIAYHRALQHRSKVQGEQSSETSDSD
Particulars: Compound concentration 20.0 uM.

Test [2] has as its target Fibroblast growth factor receptor 2 (Homo sapiens) (UniProt P21802). Particulars: Compound concentration 20.0 uM.
Description: Thermal Shift Assay. Domain: start/stop: T457-E768

Molecules are shown by their SMILES. Residues, ends and D or L forms follow the SMILES beside them. *: point of attachment. Cbz = O=C(OCc1ccccc1)*; CH2Cl = ClC*; CH2F = FC*

Fibroblast growth factor receptor 2 (Homo sapiens), sequence (P21802 22-821 limits assumed): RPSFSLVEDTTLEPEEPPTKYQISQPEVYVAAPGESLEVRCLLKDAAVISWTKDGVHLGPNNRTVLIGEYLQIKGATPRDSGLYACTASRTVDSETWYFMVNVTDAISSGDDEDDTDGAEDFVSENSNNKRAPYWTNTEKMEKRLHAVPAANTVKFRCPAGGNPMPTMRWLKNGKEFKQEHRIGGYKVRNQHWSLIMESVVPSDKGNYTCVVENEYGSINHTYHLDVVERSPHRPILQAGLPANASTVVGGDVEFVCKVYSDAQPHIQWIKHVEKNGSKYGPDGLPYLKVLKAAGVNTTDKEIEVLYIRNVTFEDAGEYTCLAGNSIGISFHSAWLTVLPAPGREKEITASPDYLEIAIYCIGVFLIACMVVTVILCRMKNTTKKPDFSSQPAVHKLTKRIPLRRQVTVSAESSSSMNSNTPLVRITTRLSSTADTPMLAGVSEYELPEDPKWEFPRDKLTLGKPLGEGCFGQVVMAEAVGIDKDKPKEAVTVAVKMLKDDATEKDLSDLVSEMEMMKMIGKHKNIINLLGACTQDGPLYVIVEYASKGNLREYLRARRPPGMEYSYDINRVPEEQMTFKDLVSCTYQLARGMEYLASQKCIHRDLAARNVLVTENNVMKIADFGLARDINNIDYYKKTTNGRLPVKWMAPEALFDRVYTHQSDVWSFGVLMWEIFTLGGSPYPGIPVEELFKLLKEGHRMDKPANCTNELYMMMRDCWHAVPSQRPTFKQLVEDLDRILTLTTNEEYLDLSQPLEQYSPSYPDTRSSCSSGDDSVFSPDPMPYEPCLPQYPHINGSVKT

As a reminder, the ΔTm is the shift of the melting midpoint relative to a reference. Turning to `CCC(CC)(NC(=O)C(C)C)C(=O)N[C@@H](CCCNC(=N)N)C(=O)NC1(C(=O)NC(c2ccc(F)cc2)c2ccc(F)cc2)CCCC1`, the shift in melting temperature (ΔTm) is -0.95 °C in test [1] and -3.44 °C in test [2].

Consider `N#Cc1ccc(Nc2cnccc2SCc2ccccc2C(=O)O)c2ccccc12`, for which the thermal shift (ΔTm) in test [1] was 1.8 °C; in test [2], 0.49 °C.

Consider `O=C1Cc2cc(C(=O)N[C@@H]3C[C@H]4CC[C@@H](C3)N4S(=O)(=O)CC3CCN(CCCC(F)(F)F)CC3)c(Cl)cc2N1`, for which the ΔTm in test [1] was -0.66 °C; in test [2], -0.16 °C.

Consider `CC(C)C[C@@H](C=O)NC(=O)[C@@H](NS(=O)(=O)c1ccc(F)cc1)C(C)C`, for which the results for the thermal shift (ΔTm) in test [1] and in test [2] were -1.65 °C and -0.07 °C, respectively.

In the case of `CC(=O)N1CCN([C@H]2CCC[C@@H](NC(=O)c3cc4c(F)ccc(C)c4[nH]3)C2)CC1`, the thermal shift (ΔTm) in test [1] is -1.02 °C; in test [2], -2.8 °C.

`Cc1cc(C(=O)CN2CCC(O)CC2)c(C)n1-c1ccc(C#N)cc1`: the ΔTm is 1.04 °C in test [1] and -0.17 °C in test [2].

Take `O=C(NCC1(c2nc(-c3ccccc3)cs2)CCOCC1)c1cccc(-c2noc(C(F)(F)F)n2)c1`: the values for the ΔTm in test [1] and in test [2] were -4.49 °C and -0.34 °C, respectively.

On to `Cc1cnc(-c2ccccc2C(C)C)nc1NCc1ccc(-n2ccnn2)cc1`, for which the figures for the shift in melting temperature (ΔTm) in test [1] and in test [2] were -1.14 °C and -0.47 °C, respectively.

With `O=C(O)CCNc1cc(N2CCc3ccccc3CC2)nc(-c2ccccn2)n1`, the ΔTm in test [1] was 0.6 °C; in test [2], 0.4 °C.

As for `COCCOc1cc(CC2CCN(CCc3ccc4c(c3)C(=O)CCO4)CC2)ccc1Br`, the ΔTm in test [1] was 1.8 °C; in test [2], -0.65 °C.

Regarding `Cc1cc(C(=O)CN2CCCCC2)c(C)n1-c1ccc(Cl)cc1`, the ΔTm in test [1] was -1.17 °C; in test [2], -0.09 °C.

As to `Cc1cc(C(=O)N2CCN(C3CN(C(=O)c4ccc(-c5ccccc5)cc4)C3)CC2)no1`, the ΔTm in test [1] was -1.49 °C; in test [2], 1.38 °C.

As for `O=C(NC[C@H](O)CN1CCc2ccccc2C1)c1cc(NC2COC2)ncn1`, the ΔTm in test [1] is -1.25 °C; in test [2], 0.37 °C.

Regarding `CC(C)[C@H](NC(=O)OCc1ccccc1)C(=O)NC(CC(=O)O)C(=O)CF` (stereo not given in full), the ΔTm was -1.71 °C in test [1] and 0.74 °C in test [2].

For the compound `CCS(=O)(=O)Cc1cnc(Oc2ccc(F)cc2F)c(-c2cc(C)c3c(=O)[nH]ccn23)c1`, the ΔTm in test [1] was found to be 2.87 °C; in test [2] it was 0.35 °C.

`O=[N+]([O-])c1cc(O)c(O)c([N+](=O)[O-])c1`: the results for the ΔTm in test [1] and in test [2] were 2.24 °C and 0.52 °C, respectively.

On to `COc1cc(Oc2ccnc3cc(OC)c(OC)cc23)ccc1NC(=O)NC(C)c1nccs1` (stereo not given), for which the shift in melting temperature (ΔTm) in test [1] is -1.23 °C; in test [2] it was -3.29 °C.

`Cc1cc(OCCCNCCC(N)=O)ccc1Cc1c(O[C@@H]2O[C@H](CO)[C@@H](O)[C@H](O)[C@H]2O)n[nH]c1C(C)C`: the ΔTm in test [1] worked out at 1.37 °C; in test [2], 0.45 °C.

Regarding `CC(C)(O)c1ccc(N2Cc3c(ccnc3-c3ccc(F)cc3OCC(F)(F)F)C2=O)cc1`, the thermal shift (ΔTm) was -1.27 °C in test [1] and -4.87 °C in test [2].

Regarding `Cc1c(CN2CCC(Nc3ncnc4sc(CC(F)(F)F)cc34)CC2)ccc2[nH]c(C#N)cc12`, the ΔTm in test [1] is -2.53 °C; in test [2], 0.11 °C.

For `CN(C)CCCCC(=O)Nc1ccc(NC(=S)NC(=O)c2ccc(C(C)(C)C)cc2)cc1`, the figures for the ΔTm in test [1] and in test [2] were -0.35 °C and -0.03 °C, respectively.

As to `CCOC(=O)Oc1c(OC)cc(C(=O)O[C@H]2C[C@H]3CN4CCc5c([nH]c6cc(OC)ccc56)[C@@H]4C[C@H]3[C@@H](C(=O)OC)[C@@H]2OC)cc1OC`, the results for the ΔTm in test [1] and in test [2] were 2.92 °C and -1.05 °C, respectively.

Take `O=C(c1cc(O)c(O)c([N+](=O)[O-])c1)c1ccccc1F`: the ΔTm in test [1] is 1.4 °C; in test [2], -0.06 °C.

As to `CC(=O)N[C@@H](Cc1ccccc1)C(=O)N[C@@H](CC(C)C)C(=O)N[C@H](C(=O)N[C@@H](CC(=O)O)C(=O)CCl)[C@@H](C)O` (Ac-FLTD-CH2Cl), the ΔTm in test [1] was -1.18 °C; in test [2] it was 0.77 °C.

Regarding `CNc1cc(-c2cccc(Cl)c2Cl)nc(N)n1`, the ΔTm was 0.7 °C in test [1] and -0.72 °C in test [2].

With `CNCc1ccc(-c2[nH]c3cc(F)cc4c3c2CCNC4=O)cc1`, the results for the ΔTm in test [1] and in test [2] were 3.14 °C and -0.11 °C, respectively.

Turning to `CCCCOc1c(OC)cc(C(=O)NCC2(N(C)C)CCOCC2)cc1OC`, the ΔTm in test [1] is -1.37 °C; in test [2], -0.02 °C.

As to `C[C@H](N)C(=O)N1C[C@H](CCCB(O)O)[C@](N)(C(=O)O)C1`, the ΔTm in test [1] is -0.07 °C; in test [2], 0.25 °C.

Consider `Cc1n[nH]c(C)c1Cc1sc2c(c1C(=O)N1C[C@H](O)CO1)c(=O)n(C)c(=O)n2CC(C)C`, for which the ΔTm was determined as 2.27 °C in test [1] and 0.22 °C in test [2].

`O=C(NC(Cc1ccccc1)C(=O)NC(Cc1ccccc1)C(=O)CF)OCc1ccccc1` (stereo not drawn) (Cbz-Phe-Phe-CH2F; configuration not given here): the ΔTm in test [1] amounted to 1.77 °C; in test [2], 0.39 °C.

In the case of `CN1CCN(c2cc(C(=O)Nc3ncc(SCc4cccc(C(F)(F)F)c4)s3)ccn2)CC1`, the figures for the ΔTm in test [1] and in test [2] were -1.6 °C and 0.89 °C, respectively.

With `CCc1c(C#N)c(S[C@@H](C(N)=O)c2ccccc2)nc(N(C)C)c1C#N`, the ΔTm in test [1] was 2.36 °C; in test [2] it was -0.11 °C.

Take `CS(=O)(=O)c1ccc(Oc2cc(F)cc(C#N)c2)c2c1[C@H](O)C(F)(F)C2`: the ΔTm in test [1] is 1.71 °C; in test [2] it was -0.21 °C.

`Cc1ccc2[nH]c3c(c2c1)CCCC3C(N)=O` (stereo not given): the ΔTm in test [1] came out at 0.79 °C; in test [2], 0.03 °C.

As for `CC#CCn1c(N2CCC[C@@H](N)C2)nc2c1c(=O)n(Cc1nc(C)c3ccccc3n1)c(=O)n2C`, the ΔTm in test [1] stood at 0.04 °C; in test [2], 0.28 °C.

Consider `CC(C)(F)C[C@H](N[C@@H](c1ccc(-c2ccc(S(C)(=O)=O)cc2)cc1)C(F)(F)F)C(=O)NC1(C#N)CC1`, for which the thermal shift (ΔTm) in test [1] is -1.04 °C; in test [2], 0.18 °C.

Take `Oc1nc(-c2ccc(C(F)(F)F)cc2)nc2c1CSCC2`: the ΔTm in test [1] was 0.57 °C; in test [2], -0.47 °C.

With `N[C@H](C(=O)O)[C@H](OCc1cccc(NC(=O)c2ccc(C(F)(F)F)cc2)c1)C(=O)O`, the ΔTm in test [1] is 0.9 °C; in test [2], -0.22 °C.

As to `N[C@@H](CCCCNC(=O)OCc1ccc([N+](=O)[O-])cc1)C(=O)N1CCCC1`, the shift in melting temperature (ΔTm) in test [1] is 0.82 °C; in test [2], -0.09 °C.

`Cc1ncsc1-c1ccc([C@H](C)NC(=O)[C@@H]2C[C@@H](O)CN2C(=O)[C@@H](NC(=O)CNC(=O)c2ccc(F)c(-c3ccc(N4C[C@@H](C)N(C)[C@@H](C)C4)c(NC(=O)c4c[nH]c(=O)cc4C(F)(F)F)c3)c2)C(C)(C)C)cc1`: the shift in melting temperature (ΔTm) is -0.15 °C in test [1] and -4.38 °C in test [2].

For `CC/C(=C(/c1ccc(/C=C/C(=O)O)cc1)c1ccc2[nH]ncc2c1)c1ccc(F)cc1Cl`, the ΔTm in test [1] was 0 °C; in test [2] it was -5.4 °C.

Consider `CNC(=O)O[C@H]1COc2ccc(N3CCN(C4COC4)CC3)cc2[C@@H]1NC(=O)c1ccc(F)cc1`, for which the ΔTm is -1.56 °C in test [1] and 0.9 °C in test [2].

Take `Cn1c(=O)c2c(nc(N3CCNCC3)n2Cc2nnc(-c3ccc(Cl)c(Cl)c3)o2)n(C)c1=O`: the ΔTm in test [1] is -0.83 °C; in test [2] it was 0.08 °C.

`O=C1C(=O)N(Cc2ccccc2)c2ccc(S(=O)(=O)N3CCC[C@H]3COc3ccc(C(F)(F)F)cc3)cc21`: the figures for the ΔTm in test [1] and in test [2] were -2.14 °C and 1.01 °C, respectively.

Take `O=C(c1cc(Cc2n[nH]c(=O)c3ccccc23)ccc1F)N1CCn2nc(C(F)(F)F)nc2C1`: the ΔTm in test [1] was 0.87 °C; in test [2], -0.57 °C.

Turning to `COc1cc(C(C)C)c2c(c1)S(=O)(=O)N(COc1cc(=O)n3cccc(OCCN4CCCCC4)c3n1)C2=O`, the results for the ΔTm in test [1] and in test [2] were -1.13 °C and 1.04 °C, respectively.

For `N#C[C@@H]1CCCN1C(=O)CNC(=O)c1ccnc2ccc(OCCCN3CCN(C(=O)CN4CCN(CC(=O)O)CCN(CC(=O)O)CCN(CC(=O)O)CC4)CC3)cc12`, the shift in melting temperature (ΔTm) in test [1] amounted to 1.8 °C; in test [2] it was 0.18 °C.

As to `N[C@H]1CC[C@H](N[C@@H]2C[C@H]2c2ccccc2)CC1`, the ΔTm in test [1] amounted to 1.23 °C; in test [2] it was 0.55 °C.

For `CCC(=O)N[C@H]1CC[C@@H](C(=O)N(C)c2ccc(-c3nc4ccccc4o3)cc2)C1`, the results for the ΔTm in test [1] and in test [2] were 0.27 °C and 0.23 °C, respectively.

For `Cc1nc(N)c2nnn(C[C@H]3CN(Cc4nccs4)CCO3)c2n1`, the ΔTm in test [1] was 0.82 °C; in test [2] it was -0.39 °C.
